A short description of the data set: Emulsification of coconut oil and water with different emulsifiers (Example 2). It counts as physicochemical. The settings on record: coconut oils solid and liquid (MCT); emulsifying agent tested.

One substance from US10617636B2, “Cannabis infused sweeteners and elixirs” (SRE Wellness, Inc., priority 2016, dated 2020) can be followed below.

Method: Several experiments were run using several different emulsifiers and combinations of different coconut oils: solid and liquid (MCT). (Note: liquid MCT is coconut oil that has medium chain triglyceride).
The method used to produce the invention emulsifications, included first heating extra virgin organic coconut oil to between 120 to 220 degrees F. CO2 extracted cannabis oil is added. In a high speed blender (or similar machine) coconut water is added to the coconut fat (oil) to ensure emulsification. While blending, xanthan gum powder is added in an amount between 0.15% and 0.45% of the total volume of finished product. Percentages used herein are on a dry weight basis and are based on the total volume of the finished product. The blender is run at high speed for between 30 seconds and 2.

cyclodextrin: the “emulsification of the oil and water (result in words)” value was “good results”.
